Legend:
[1] = Liquid; for speed of sound: 100 kPa, Frequency=3 MHz, Sing-around technique in a fixed-path interferometer; for mass density: 101.3 kPa, Vibrating tube method
[2] = refractive index (Na D-line) (dimensionless); details: 100 kPa, Liquid, Standard Abbe refractometry
[3] = xn = mol fraction of the nth substance listed; details: Liquid, x1 = 1; for speed of sound: 100 kPa, Frequency=3 MHz, Sing-around technique in a fixed-path interferometer; for mass density: 101.3 kPa, Vibrating tube method
[4] = refractive index (Na D-line) (dimensionless); xn = mol fraction of the nth substance listed; details: 100 kPa, Liquid, Standard Abbe refractometry, x1 = 1

CCCOCCO [2-propoxyethanol]
Details | mass density, [1] [kg/m3] | refractive index, [2] | speed of sound, [1] [m/s]
298.15 K | 908.31 | 1.41255 | 1299.9
308.15 K | 899.5 | 1.40814 | 1265
318.15 K | 890.56 | 1.40355 | 1230.1
328.15 K | 881.49 | 1.39908 | 1195.8

CCOS(=O)(=O)[O-].CCn1cc[n+](C)c1 [1-ethyl-3-methylimidazolium ethyl sulfate] + CCCOCCO
Details | mass density, [3] [kg/m3] | refractive index, [4] | speed of sound, [3] [m/s]
298.15 K | 1236.38 | 1.47907 | 1680.8
308.15 K | 1229.49 | 1.47645 | 1656.4
318.15 K | 1222.78 | 1.47374 | 1632.4
328.15 K | 1216.16 | 1.47112 | 1608.9

CCOS(=O)(=O)[O-].CCn1cc[n+](C)c1 [1-ethyl-3-methylimidazolium ethyl sulfate]
Details | mass density, [1] [kg/m3] | refractive index, [2] | speed of sound, [1] [m/s]
298.15 K | 1236.38 | 1.47907 | 1680.8
308.15 K | 1229.49 | 1.47645 | 1656.4
318.15 K | 1222.78 | 1.47374 | 1632.4
328.15 K | 1216.16 | 1.47112 | 1608.9

Source: the NIST ThermoML archive (doi:10.1016/j.jct.2016.03.028)
